Reference: patent US11903998B2, “Compositions and methods of treating cancer using lipid agonists and receptors thereof” (Forsyth Dental Infirmary for Children, priority 2016, dated 2024)
Where two headings read alike, the source gives them in different places.

Legend:
IL-6 = assay: Multiplex bead array cytokine level in tumor tissue; type: in vivo; settings: Wt mice, RvE1 pre-treatment, mean ± SEM
Experimental: (§1) Inflammation is driven by soluble factors that are produced by tumor cells and by the cells recruited to the tumor microenvironment. […] Cytokine levels were measured using a multiplex bead array assay kit for Luminex purchased from Millipore to measure the following cytokines: G-CSF, IL-10, IL-6, IL-8, IL-12, TNF □, as per the manufacturer's instructions using a Luminex 100 instrument. Appropriate dilutions of the samples in assay diluent were made as required. Each sample was assayed in duplicate and cytokine standards supplied by the manufacturer were used to calculate the concentrations in the samples. Cytokine levels are expressed in pg/ml.

IL-12 = assay: as above; type: in vivo; settings: Wt mice, RvE1 pre-treatment, mean ± SEM
Experimental: as §1

COX-2 [1] = assay: Quantitative mRNA expression in tumor tissue (qPCR); type: in vivo, mice; settings: p<0.001
Experimental: (§2) In order to analyze the impact of RvE1 on inflammation and angiogenesis, the expression of NF-κB, COX-2, VEGF, Ang-1 and Ang-2 was examined by quantitative real-time PCR. Total cellular RNA was extracted from tumor tissue (stored in RNAlater solution) using TriZol reagent. Quantification of RNA was determined using NanoDrop 1000 (Thermo Fisher Scientific, Wilmington, DE). RNA samples were stored at −80° C. until use. The first-strand cDNA was synthesized with High Capacity cDNA Archive kit (Applied Biosystems, Foster City, CA, USA) according to the manufacturer's instructions. For quantitative RT-PCR analysis, oligonucleotides for NF-κB, COX-2, VEGF, Ang-1, Ang-2 and GAPDH were chosen from predesigned assays. Thermal cycling included initial steps at 50° C. for 2 min and at 95° C. for 10 min, followed by 40 cycles at 95° C. for 15 s and at 60° C. for 1 min. The fluorescence of the double-stranded products was monitored in real time. The cDNA was amplified and quantified using Sequence Detection System (SDS) 7000 (Applied Biosystems). The 2^(ΔΔCt) (Ct value of target gene minus Ct value of housekeeping gene) method was used to calculate relative quantity fold-change. GAPDH was used as the housekeeping gene. The data is from 3 independent experiments performed in triplicate.

NF-κB [2] = assay: as above; type: in vivo, mice; settings: p<0.001
Experimental: as §2

Ang1 = assay: as above; type: in vivo, mice; settings: p<0.001
Experimental: as §2

[3] = test system: LA-P0297 lung cancer cells; type: in vivo, mice; settings: for No tumor / Tumor developed (number of mice): total 6; for No tumor / Tumor developed (number of mice) / Necrosis: RvE1 pre-treatment; for Necrosis: cell wraps: Started on 18th day
From the text: ERV1-transgenic mice (Tg) were engineered as previously described (Gao et al., 2013). In brief, the full-length of hCD11b promoter cDNA was cloned upstream of the full-length chemR23 cDNA (GenBank accession: www.ncbi.nlm.nih.gov/nuccore/NM_004072). For genotyping, genomic DNA was collected from ear punch biopsies of mice and screened by PCR with primers directed to mouse ERV1 (forward primer 5′-CTCGGTCTCCTAGGCAAC-3′) and human ERV1 (forward primer 5′-GTCTTCCTCCCAATCCAT-3′). The mouse and human ERV1 amplicons share the same reverse primer (5′-TAGAAAGCCAGGACCCAG-3′). FVB Wild type female mice (Wt) were purchased from Jackson Laboratories (Bar Harbor, ME). All animals were housed under specific pathogen-free conditions, received standard laboratory chow diet and water ad libitum. All animal experiments were approved by the Institutional Animal Care and Use Committee (IACUC) at the Forsyth Institute and were performed in conformance to the standards of the Public Health Service Policy on Humane Care and Use of Laboratory Animals. The animals were acclimatized before being used in the experimental study.
After one week of acclimatization, all animals received an injection of 1×10^6 LA-P0297 lung cancer cells subcutaneous in the right flank. Both Wt (n=18) and Tg (n=18) animals were randomly divided into 3 experimental groups: un-treated controls; 100 ng of RvE1 diluted in PBS injected intraperitoneal daily for the first 6 days and weekly thereafter for 3 weeks; vehicle, which was 5% ethanol diluted in PBS. RvE1 was stored in 100% ethanol and diluted in PBS immediately before use. RvE1 and vehicle were administered 30 minutes before the injection of cancer cells. Animals were checked routinely for body weight and growth of tumors on the skin. Tumor volume was measured using a Vernier caliper (Mitutoyo, Japan) and calculated using the following formula: V=½(L×W^2) where L=length and W=width. After 28 days, the animals were euthanized by CO2 asphyxia; tumor tissues were collected and stored for histological and molecular analyses.

COX-2 [4] = assay: COX-2 expression, RvE1 and cisplatin xenograft model; type: in vivo, mice
Ki67 = assay: Immunohistochemistry of tumor tissue, proliferation marker; type: in vivo, mice
Experimental: (§3) In order to identify tumor cell proliferation and angiogenesis markers, the expression of Ki67 as a marker of proliferation and CD31, CD34 and VEGF as markers of vascularization was analyzed by immunohistochemistry. Briefly, 5 μm thick sections were de-paraffinized and rehydrated with serial alcohol solutions. Antigen retrieval was performed by incubating the sections in 10 mM sodium citrate (pH 6.0) in a microwave oven first for 5 min at 720 W, then 3 min at 450 W and finally 2 min at 180 W. Endogenous peroxidase activity was quenched by incubating the slides with 3% H2O2 (in methanol) for 20 minutes at 4° C. followed by blocking with 2% BSA for 30 minutes at room temperature. The sections were then incubated with antibodies to Ki67, CD31, CD34 and VEGF (1:100 dilution) overnight at 4° C. in a humidified chamber. Sections were incubated with ABC reagent VACTASTAIN Elite ABC Standard Kit (PK-6100). The immune reactions were visualized using 3,3-diaminobenzidine tetra hydrochloride (DAB). DAB-stained slides were counterstained lightly with hematoxylin. Slides were dehydrated and mounted with Permount for analysis. Images were acquired and analyzed using the Nikon Eclipse 80i microscope (Japan) and Northern Eclipse imaging Elements-D (NIS-D) software. The results are expressed as percent of total positive cells.

COX2 = COX2 expression, orthotopic model of lung cancer; type: in vivo
Ang2 = assay: Quantitative mRNA expression in tumor tissue (qPCR); type: in vivo; settings: both Wt and Tg mice vs controls and vehicle groups, p<0.001
Experimental: as §2

[5] = test system: LA-P0297 lung cancer cells; assay: Histological analysis of tumor tissue (hematoxylin and eosin); type: in vivo, mice
From the text: To examine the microscopic alterations in the tumor tissue, tissues were fixed in 10% formalin, paraffin embedded, sectioned (5 μm) and stained with hematoxylin and eosin. Images were photographed and enlarged for evaluation.

lung cancer [6] = assay: Orthotopic model of lung cancer, RvE1; type: in vivo
IL-1α = assay: Multiplex bead array cytokine level in tumor tissue; type: in vivo; settings: Wt mice, RvE1 pre-treatment, mean ± SEM
lung cancer [7] = settings: mouse, in vivo
NF-κB [8] = assay: NF-κB expression, RvE1 and cisplatin xenograft model; type: in vivo, mice
lung cancer [9] = assay: RvE1 and cisplatin in xenograft model of lung cancer
CD31 = assay: Immunohistochemistry of tumor tissue, vascularization marker CD31; type: in vivo; settings: both Wt and Tg mice vs respective controls and vehicle groups
Experimental: as §3

TNF-α = assay: Multiplex bead array cytokine level in tumor tissue; type: in vivo, mice; settings: RvE1 pre-treatment, mean ± SEM
Experimental: as §1

G-CSF = assay: as above; type: in vivo, mice; settings: RvE1 pre-treatment, mean ± SEM
Experimental: as §1

IL-8 = assay: as above; type: in vivo, mice; settings: RvE1 pre-treatment, mean ± SEM
Experimental: as §1

CD34 = assay: Immunohistochemistry of tumor tissue, vascularization marker CD34; type: in vivo, mice
Experimental: as §3

VEGF = VEGF expression in tumor tissue (immunohistochemistry and PCR); type: in vivo, mice; settings: p<0.001
Experimental: as §3
In order to analyze the impact of RvE1 on inflammation and angiogenesis, the expression of NF-κB, COX-2, VEGF, Ang-1 and Ang-2 was examined by quantitative real-time PCR. […] Quantification of RNA was determined using NanoDrop 1000 (Thermo Fisher Scientific, Wilmington, DE). […] For quantitative RT-PCR analysis, oligonucleotides for NF-κB, COX-2, VEGF, Ang-1, Ang-2 and GAPDH were chosen from predesigned assays. […] The fluorescence of the double-stranded products was monitored in real time. The cDNA was amplified and quantified using Sequence Detection System (SDS) 7000 (Applied Biosystems). The 2^(ΔΔCt) (Ct value of target gene minus Ct value of housekeeping gene) method was used to calculate relative quantity fold-change. […]

lung cancer [10] = assay: LXA4 and xenograft model of lung cancer; type: in vivo
COX-2 [11] = assay: COX-2 expression, LXA4 xenograft model of lung cancer; type: in vivo; settings: LXA4-treatment group
[12] = Tg mice vs control and vehicle animals
[13] = Wt mice vs control and vehicle animals
[14] = RvE1 added to cisplatin, WT and TG animals
[15] = cisplatin, WT and TG mice, p<0.001

## CC[C@@H](O)/C=C/C=C\C[C@@H](O)/C=C/C=C/C=C\[C@@H](O)CCCC(=O)O [RvE1, Resolvin E1]
IL-6
  IL-6 level in tumor tissue: 52.06 pg/mL
IL-12
  IL-12 level in tumor tissue: 46.73 ± 4.7 pg/mL
COX-2 [1]; Tg mice vs controls and vehicle groups
  COX-2 mRNA decrease: 8 fold
COX-2 [1]; Wt mice vs controls and vehicle groups
  COX-2 mRNA decrease: 6 fold
NF-κB [2]; [12]
  NF-κB expression reduction: 7.6 fold
NF-κB [2]; [13]
  NF-κB expression reduction: 4 fold
Ang1; both Wt and Tg mice vs controls and vehicle groups
  Ang1 expression: significantly decreased
Ang1
  Decrease in Ang1 expression, Tg mice compared to Wt animals: more significant
[3]; RvE1 treated groups
  Necrosis seen on the surface of tumors, from day: 19 days
[3]; Tg mice
  No tumor: 3
  Tumor developed (number of mice): 3
  Necrosis: Started
[3]; Wt mice
  No tumor: Weak
  Tumor developed (number of mice): 4
  Necrosis: Started
[3]; both Wt and Tg animals vs vehicle and control groups, p<0.001
  Tumor size: reduced significantly
[3]; mouse, in vivo
  Body weight: no significant difference
  Signs of toxicity (behavioral changes; eating, drinking habits and movement): None of the animals exhibited any signs of toxicity
[3]; vs tumors of animals not treated with RvE1 (solid and rigid)
  Tumor appearance: very soft and pulpous
COX-2 [4]; [14]
  Suppression (reduction) of COX-2 expression compared to cisplatin alone: increased the suppression
Ki67; Tg vs Wt
  Reduction in the expression of Ki67, RvE1 treated Tg mice compared to Wt mice treated with RvE1: significantly (p<0.01) higher
Ki67; both Wt and Tg groups vs vehicle and control groups
  Ki67-positive cells: significant (p<0.001) reduction
COX2; both groups (WT and TG)
  Reduction of the expression of COX2: 6 fold
COX2; only in the TG animals
  Reduction of expression (printed in the COX2 sentence): 6-7 fold
Ang2
  Ang2 expression: significantly decreased
[5]; RvE1-treated Wt and Tg animals
  Microscopic alterations of tumor tissue: extensive necrosis
[5]; Tg vs Wt
  Necrosis, RvE1 treated Tg mice compared to Wt mice: more prominent
Lung cancer [6]; RvE1 vs control groups
  Histological findings in lungs: decreased tumor density, vascularization, and inflammatory infiltration with increased necrosis
Lung cancer [6]; TG+RvE1 (TG control 8-10)
  Number of nodules in the lung over 2 weeks: 3-5 nodules
Lung cancer [6]; TG+RvE1 (TG control 25%)
  Survival over 2 weeks: 80%
Lung cancer [6]; WT+RvE1 (WT control 8-10)
  Number of nodules in the lung over 2 weeks: 4-6 nodules
Lung cancer [6]; WT+RvE1 (WT control 25%)
  Survival over 2 weeks: 40%
IL-1α
  IL-1α level in tumor tissue: 177.94 ± 15.7 pg/mL
Lung cancer [7]
  Signs of toxicity (behavioral changes; eating, drinking habits and movement): None of the animals exhibited any signs of toxicity
NF-κB [8]; [14]
  Suppression (reduction) of NF-κB expression compared to cisplatin alone: increased the suppression
Lung cancer [9]; RvE1 added to cisplatin, both WT and TG animals, p<0.001
  Tumor volume compared to cisplatin alone: significantly and further reduced
Lung cancer [9]; TG animals treated with cisplatin and additional RvE1
  Tumor volume compared to the non-treated and WT groups: markedly reduced tumor volume
CD31
  CD31 positive cells: significantly (p<0.001) reduced
TNF-α; Tg mice
  TNF-α level in tumor tissue: 10.06 ± 2.1 ^¥¥ pg/ml
TNF-α; Wt mice
  TNF-α level in tumor tissue: 13.23 pg/mL
G-CSF; Tg mice
  G-CSF level in tumor tissue: 1156.31 pg/mL
G-CSF; Wt mice
  G-CSF level in tumor tissue: 1624.28 ± 170.8 pg/mL
IL-8; Tg mice
  IL-8 level in tumor tissue: 692.61 pg/mL
IL-8; Wt mice
  IL-8 level in tumor tissue: 2629.41 ± 263.3 pg/mL
CD34; both Wt and Tg mice vs respective controls and vehicle groups
  CD34 positive cells: significantly (p<0.001) reduced
CD34; p<0.01
  Reduction of CD34 expression in tumor tissues, Tg animals vs Wt animals: significantly more
VEGF; [12]
  VEGF expression reduction: 7 fold
VEGF; [13]
  VEGF expression reduction: 5 fold
VEGF
  Decrease of VEGF expression, Tg mice compared to Wt mice treated with RvE1: more significant

## CCCCC[C@H](O)/C=C/C=C\C=C\C=C\[C@@H](O)[C@@H](O)CCCC(=O)O [LXA4, lipoxin A4]
Lung cancer [10]; LXA4-treated group vs WT-vehicle control, 4 weeks
  Necrosis, center of the tumor tissue: highly necrotic
Lung cancer [10]; LXA4 group vs vehicle
  Inflammatory infiltration: no sign of inflammatory infiltration
Lung cancer [10]; LXA4 vs vehicle group over 4 weeks
  Tumor volume: reduced the tumor volume significantly
Lung cancer [10]; LXA4 vs vehicle, 4 weeks
  Body weight: No change
COX-2 [11]
  COX-2 expression: significantly decreased

## N.N.[Cl][Pt][Cl] [cisplatin]
COX-2 [4]; [15]
  COX-2 expression: reduced
NF-κB [8]; [15]
  NF-κB expression: reduced
Lung cancer [9]; cisplatin
  Tumor volume: reduced tumor volume
Lung cancer [9]; cisplatin, both WT and TG groups
  Decrease of tumor growth compared to control groups: more than 10 fold
Lung cancer [9]; cisplatin-alone group
  Body weight: lost weight after the first 2 weeks
